Measurements: patent US20230146455A1, “TREATMENT OF INFLAMMATORY DISEASES WITH PEPTIDES AND PHARMACEUTICAL COMPOSITIONS” (Yuyu Pharma, Inc., priority 2020, published 2023)
“And” between values parts separate entries of the source, which are not always exact repeats. Equal entries are not always repeated. Where a SMILES comes first, the peptide text is derived from it. [ ]: non-standard residue; d: D form. Hyp = O=C(O)[C@@H]1C[C@@H](O)CN1

Assays:
IL-8 = experiment: Example 9 Luminex, LPS hPBMCs: IL-8; type: cell-based, human
Protocol: (§1) Treatment Human PBMCs were pretreated with YY-101, YDE-011 and YDE-043 or reference compound; Xiidra® at various concentration (ranging from 1 nM to 100 uM) for 2 h before stimulation. An equal volume of 0.5% DMSO was used as a vehicle control. Then, the cells were treated with LPS at 5 ug/ml. The supernatants from treated cells were harvested at 24 h and placed in a 96 well for Luminex cytokine & chemokine profiling using a Luminex 200 multiplex assay (Luminex; R&D system, USA).
(§2) The main study arm with triplicate wells per group in a 24-well plate: • 1. Blank • 2. PBMC: 0.5% DMSO • 3. PBMC+LPS (5 ug/ml) • 4. PBMC+YY-101 100 uM • 5. PBMC+YY-101 10 uM • 6. PBMC+YY-101 1 uM • 7. PBMC+YY-101 0.1 uM • 8. PBMC+YY-101 0.01 uM • 9. PBMC+LPS (5 ug/ml)+Xiidra®100 uM • 10. PBMC+LPS (5 ug/ml)+Xiidra® 10 uM • 11. PBMC+LPS (5 ug/ml)+Xiidra® 1 uM • 12. PBMC+LPS (5 ug/ml)+Xiidra®0.1 uM • 13. PBMC+LPS (5 ug/ml)+Xiidra®0.01 uM • 14. PBMC+LPS (5 ug/ml)+Xiidra®0.001 uM • 15. PBMC+LPS (5 ug/ml)+YY-101 100 uM • 16. PBMC+LPS (5 ug/ml)+YY-101 10 uM • 17. PBMC+LPS (5 ug/ml)+YY-101 1 uM • 18. PBMC+LPS (5 ug/ml)+YY-101 0.1 uM • 19. PBMC+LPS (5 ug/ml)+YY-101 0.01 uM • 20. PBMC+LPS (5 ug/ml)+YY-101 0.001 uM • 21. PBMC+LPS (5 ug/ml)+YDE-011 100 uM • 22. PBMC+LPS (5 ug/ml)+YDE-011 10 uM • 23. PBMC+LPS (5 ug/ml)+YDE-011 1 uM • 24. PBMC+LPS (5 ug/ml)+YDE-011 0.1 uM • 25. PBMC+LPS (5 ug/ml)+YDE-011 0.01 uM • 26. PBMC+LPS (5 ug/ml)+YDE-011 0.001 uM • 27. PBMC+LPS (5 ug/ml)+YDE-043 100 uM • 28. PBMC+LPS (5 ug/ml)+YDE-043 10 uM • 29. PBMC+LPS (5 ug/ml)+YDE-043 1 uM • 30. PBMC+LPS (5 ug/ml)+YDE-043 0.1 uM • 31. PBMC+LPS (5 ug/ml)+YDE-043 0.01 uM • 32. PBMC+LPS (5 ug/ml)+YDE-043 0.001 uM
(§3) Multiplex assay was used to measure 30 cytokines and chemokines. The 1:2, 1:10 and 1:200 diluted cell supernatant and serial dilution of the standard were dispensed into a 96 well plate at 50 ul/well. Then, the pre-mixed cocktail of antibody-coated magnetic beads was dispensed at 50 ul/well and incubated at room temperature for 2 h in a horizontal orbital microplate shaker at 800±500 rpm. The beads were washed using a magnetic device to prevent loss. The biotin-antibody was dispensed in 50 ul of each well and incubated at room temperature for 1 h in a shaker at 800±500 rpm. After washing, streptavidin-PE was added at 50 ul/well and incubated at room temperature for 30 min in a shaker under the same conditions. Finally, after washing, wash buffer (100 ul/well) was added to the plate and incubated in a shaker for 2 min. The Luminex™ 200 setting were set according to the manufacturer's protocol. The data was calculated with a standard five-parameter logistic nonlinear regression analysis of the data (xPonent software 4.2, USA). The levels of cytokine/chemokine are normalized to the live cell counts (1×10^5 cells/mL) and presented as concentrations per mL (pg/mL or ng/mL).

IL-6 = experiment: Example 9 Luminex, LPS hPBMCs: IL-6; type: cell-based, human; settings: Bead IL-6, PBMC + LPS(5 ug/ml)
Protocol: as §1, §2, §3

[1] = PBMC + LPS(5 ug/ml) + test article 0.001 uM, Mean
[2] = PBMC + LPS(5 ug/ml) + test article 0.001 uM, single replicates (1st, 2nd, 3rd)
[3] = PBMC + LPS(5 ug/ml) + test article 0.01 uM, Mean
[4] = PBMC + LPS(5 ug/ml) + test article 0.01 uM, single replicates (1st, 2nd, 3rd)
[5] = PBMC + LPS(5 ug/ml) + test article 0.1 uM, Mean
[6] = PBMC + LPS(5 ug/ml) + test article 0.1 uM, single replicates (1st, 2nd, 3rd)
[7] = PBMC + LPS(5 ug/ml) + test article 1 uM, Mean
[8] = PBMC + LPS(5 ug/ml) + test article 1 uM, single replicates (1st, 2nd, 3rd)
[9] = PBMC + LPS(5 ug/ml) + test article 10 uM, Mean
[10] = PBMC + LPS(5 ug/ml) + test article 10 uM, single replicates (1st, 2nd, 3rd)
[11] = PBMC + LPS(5 ug/ml) + test article 100 uM, Mean
[12] = PBMC + LPS(5 ug/ml) + test article 100 uM, single replicates (1st, 2nd, 3rd)
[13] = PBMC + test article 0.01 uM, no LPS, Mean
[14] = PBMC + test article 0.01 uM, no LPS, single replicates (1st, 2nd)
[15] = PBMC + test article 0.1 uM, no LPS, Mean
[16] = PBMC + test article 0.1 uM, no LPS, single replicates (1st, 2nd)
[17] = PBMC + test article 1 uM, no LPS, Mean
[18] = PBMC + test article 1 uM, no LPS, single replicates (1st, 2nd)
[19] = PBMC + test article 10 uM, no LPS, Mean
[20] = PBMC + test article 10 uM, no LPS, single replicates (1st, 2nd)
[21] = PBMC + test article 100 uM, no LPS, Mean
[22] = PBMC + test article 100 uM, no LPS, single replicates (1st, 2nd)

CC(C)C[C@H](NC(=O)CNC(=O)[C@H](CC(=O)O)NC(=O)[C@H](CCC(N)=O)NC(=O)CNC(=O)[C@@H]1C[C@@H](O)CN1)C(=O)N[C@@H](C)C(=O)NCC(=O)N1CCC[C@H]1C(=O)N[C@@H](CCCCN)C(=O)O [YY-101] (H-[Hyp]GQDGLAGPK-OH; N-terminus and C-terminus assumed)
Concentration (IL-8; [1]): 47261.8 pg/mL | conc/live cell (IL-8; [1]): 7362.6 pg/10^5 | Concentration (IL-8; [2]): 45291.5 pg/mL and 44844.4 pg/mL and 51649.5 pg/mL | conc/live cell (IL-8; [2]): 7945.9 pg/10^5 and 6316.1 pg/10^5 and 7825.7 pg/10^5 | Concentration (IL-8; [3]): 45595.7 pg/mL | conc/live cell (IL-8; [3]): 7399.0 pg/10^5 | Concentration (IL-8; [4]): 45499.3 pg/mL and 44844.4 pg/mL and 46443.3 pg/mL | conc/live cell (IL-8; [4]): 7109.3 pg/10^5 and 7474.1 pg/10^5 and 7613.7 pg/10^5 | Concentration (IL-8; [5]): 41918.3 pg/mL | conc/live cell (IL-8; [5]): 7205.6 pg/10^5 | Concentration (IL-8; [6]): 41283.9 pg/mL and 42997.0 pg/mL and 41473.9 pg/mL | conc/live cell (IL-8; [6]): 6658.7 pg/10^5 and 8268.7 pg/10^5 and 6689.3 pg/10^5 | Concentration (IL-8; [7]): 46108.9 pg/mL | conc/live cell (IL-8; [7]): 7089.9 pg/10^5 | Concentration (IL-8; [8]): 45195.7 pg/mL and 45259.6 pg/mL and 47871.4 pg/mL | conc/live cell (IL-8; [8]): 7173.9 pg/10^5 and 6374.6 pg/10^5 and 7721.2 pg/10^5 | Concentration (IL-8; [9]): 46679.5 pg/mL | conc/live cell (IL-8; [9]): 7101.0 pg/10^5 | Concentration (IL-8; [10]): 46315.2 pg/mL and 50742.2 pg/mL and 42981.1 pg/mL | conc/live cell (IL-8; [10]): 7719.2 pg/10^5 and 7928.5 pg/10^5 and 5655.4 pg/10^5 | Concentration (IL-8; [11]): 46500.3 pg/mL | conc/live cell (IL-8; [11]): 8028.8 pg/10^5 | Concentration (IL-8; [12]): 48337.8 pg/mL and 46988.3 pg/mL and 44174.7 pg/mL | conc/live cell (IL-8; [12]): 7672.7 pg/10^5 and 7578.8 pg/10^5 and 8834.9 pg/10^5 | Concentration (IL-8; [13]): 4859.1 pg/mL | conc/live cell (IL-8; [13]): 989.4 pg/10^5 | Concentration (IL-8; [14]): 2863.8 pg/mL and 6854.4 pg/mL | conc/live cell (IL-8; [14]): 550.7 pg/10^5 and 1428.0 pg/10^5 | Concentration (IL-8; [15]): 4413.2 pg/mL | conc/live cell (IL-8; [15]): 835.0 pg/10^5 | Concentration (IL-8; [16]): 2701.4 pg/mL and 6125.1 pg/mL | conc/live cell (IL-8; [16]): 614.0 pg/10^5 and 1056.0 pg/10^5 | Concentration (IL-8; [17]): 4580.5 pg/mL | conc/live cell (IL-8; [17]): 832.8 pg/10^5 | Concentration (IL-8; [18]): 4461.8 pg/mL and 4699.1 pg/mL | conc/live cell (IL-8; [18]): 811.2 pg/10^5 and 854.4 pg/10^5 | Concentration (IL-8; [19]): 21138.7 pg/mL | conc/live cell (IL-8; [19]): 3322.0 pg/10^5 | Concentration (IL-8; [20]): 37311.2 pg/mL and 4966.2 pg/mL | conc/live cell (IL-8; [20]): 5829.9 pg/10^5 and 814.1 pg/10^5 | Concentration (IL-8; [21]): 15311.8 pg/mL | conc/live cell (IL-8; [21]): 2320.9 pg/10^5 | Concentration (IL-8; [22]): 19929.7 pg/mL and 10693.9 pg/mL | conc/live cell (IL-8; [22]): 3114.0 pg/10^5 and 1527.7 pg/10^5 | Concentration (IL-6; 0.001 uM, Mean): 12498.5 pg/mL | MFI (IL-6; 0.001 uM, Mean): 355.4 | conc/live cell (IL-6; 0.001 uM, Mean): 1952.7 pg/10^5 | Concentration (IL-6; 0.001 uM, single replicates): 13037.8 pg/mL and 12646.1 pg/mL and 11811.7 pg/mL | MFI (IL-6; 0.001 uM, single replicates): 371.3 and 359.8 and 335.3 | conc/live cell (IL-6; 0.001 uM, single replicates): 2287.3 pg/10^5 and 1781.1 pg/10^5 and 1789.6 pg/10^5 | Concentration (IL-6; 0.01 uM, Mean): 13304.7 pg/mL | MFI (IL-6; 0.01 uM, Mean): 379.1
